The text below walks through data of ChEMBL document CHEMBL5465560, “Selectivity Literature for EUbOPEN Chemogenomic Library” (2024).

The target of assay [1] is T1, Mitogen-activated protein kinase kinase kinase 15 (Homo sapiens) (UniProt Q6ZN16).
T1 sequence (whole entry): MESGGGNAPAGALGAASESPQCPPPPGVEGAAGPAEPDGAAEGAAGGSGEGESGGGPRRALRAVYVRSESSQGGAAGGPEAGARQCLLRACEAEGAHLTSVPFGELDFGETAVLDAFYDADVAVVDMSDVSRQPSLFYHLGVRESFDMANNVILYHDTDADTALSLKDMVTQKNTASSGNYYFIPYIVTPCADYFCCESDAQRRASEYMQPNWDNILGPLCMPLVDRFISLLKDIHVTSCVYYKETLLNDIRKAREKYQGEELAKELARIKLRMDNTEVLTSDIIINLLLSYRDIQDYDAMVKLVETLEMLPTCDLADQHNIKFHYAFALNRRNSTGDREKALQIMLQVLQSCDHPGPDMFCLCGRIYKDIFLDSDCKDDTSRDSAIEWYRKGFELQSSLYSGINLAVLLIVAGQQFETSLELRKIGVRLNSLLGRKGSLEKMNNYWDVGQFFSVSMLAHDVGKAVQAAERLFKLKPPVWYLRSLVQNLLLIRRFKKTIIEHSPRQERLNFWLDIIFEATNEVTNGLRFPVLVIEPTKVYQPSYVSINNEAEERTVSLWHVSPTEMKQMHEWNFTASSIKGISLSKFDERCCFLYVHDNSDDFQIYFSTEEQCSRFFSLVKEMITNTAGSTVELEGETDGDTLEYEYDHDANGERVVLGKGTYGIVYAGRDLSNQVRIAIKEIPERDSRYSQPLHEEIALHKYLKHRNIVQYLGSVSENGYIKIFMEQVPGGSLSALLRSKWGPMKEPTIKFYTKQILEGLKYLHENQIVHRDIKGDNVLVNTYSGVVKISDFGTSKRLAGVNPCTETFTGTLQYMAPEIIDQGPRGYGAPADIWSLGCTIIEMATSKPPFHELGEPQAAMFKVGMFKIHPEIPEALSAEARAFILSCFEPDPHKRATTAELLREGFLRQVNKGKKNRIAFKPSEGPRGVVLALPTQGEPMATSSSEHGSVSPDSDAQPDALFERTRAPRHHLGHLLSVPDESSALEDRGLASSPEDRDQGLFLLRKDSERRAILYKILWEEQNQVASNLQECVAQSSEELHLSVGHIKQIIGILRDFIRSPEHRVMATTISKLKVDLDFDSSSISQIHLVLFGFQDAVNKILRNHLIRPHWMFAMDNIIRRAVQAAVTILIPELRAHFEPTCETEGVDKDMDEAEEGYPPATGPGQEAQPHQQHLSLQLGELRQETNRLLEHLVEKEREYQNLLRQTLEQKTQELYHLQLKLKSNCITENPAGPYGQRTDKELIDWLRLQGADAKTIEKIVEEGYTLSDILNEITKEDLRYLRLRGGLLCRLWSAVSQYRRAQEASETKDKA
Description: Selectivity interaction (KinomeScan (DiscoverX)) EUB0001049a MAP3K15. As to conditions: at 1 µM.

Assay [2] addresses CDK8/Cyclin C (Homo sapiens) (UniProt P49336+P24863). Description: Selectivity interaction (LanthaScreen Eu Kinase Binding Assay) EUB0001632a CDK8. Format: protein-complex assay. The note with it: at 10 µM. On the technique in general: TR-FRET usually uses a lanthanide donor and a delayed reading to cut background.
Assay [3] concerns the target Tyrosine-protein kinase JAK1 (Homo sapiens, UniProt P23458). Kind of assay: Selectivity interaction (ActivX KiNativ screen (kinase selectivity in THP-1 cell lysates)) EUB0000639a JAK1. Format: subcellular. As to conditions: lysate, at 0.2 µM.
Assay [4] relates to Leucine-rich repeat serine/threonine-protein kinase 2 (Homo sapiens), Q5S007 [G2019S]. Kind of assay: (§1) Selectivity interaction (KinomeScan (DiscoverX)) EUB0000595a LRRK2. As to conditions: at 10 µM.
Leucine-rich repeat serine/threonine-protein kinase 2 (Homo sapiens), Q5S007 [G2019S], sequence (Q5S007 whole entry G2019S): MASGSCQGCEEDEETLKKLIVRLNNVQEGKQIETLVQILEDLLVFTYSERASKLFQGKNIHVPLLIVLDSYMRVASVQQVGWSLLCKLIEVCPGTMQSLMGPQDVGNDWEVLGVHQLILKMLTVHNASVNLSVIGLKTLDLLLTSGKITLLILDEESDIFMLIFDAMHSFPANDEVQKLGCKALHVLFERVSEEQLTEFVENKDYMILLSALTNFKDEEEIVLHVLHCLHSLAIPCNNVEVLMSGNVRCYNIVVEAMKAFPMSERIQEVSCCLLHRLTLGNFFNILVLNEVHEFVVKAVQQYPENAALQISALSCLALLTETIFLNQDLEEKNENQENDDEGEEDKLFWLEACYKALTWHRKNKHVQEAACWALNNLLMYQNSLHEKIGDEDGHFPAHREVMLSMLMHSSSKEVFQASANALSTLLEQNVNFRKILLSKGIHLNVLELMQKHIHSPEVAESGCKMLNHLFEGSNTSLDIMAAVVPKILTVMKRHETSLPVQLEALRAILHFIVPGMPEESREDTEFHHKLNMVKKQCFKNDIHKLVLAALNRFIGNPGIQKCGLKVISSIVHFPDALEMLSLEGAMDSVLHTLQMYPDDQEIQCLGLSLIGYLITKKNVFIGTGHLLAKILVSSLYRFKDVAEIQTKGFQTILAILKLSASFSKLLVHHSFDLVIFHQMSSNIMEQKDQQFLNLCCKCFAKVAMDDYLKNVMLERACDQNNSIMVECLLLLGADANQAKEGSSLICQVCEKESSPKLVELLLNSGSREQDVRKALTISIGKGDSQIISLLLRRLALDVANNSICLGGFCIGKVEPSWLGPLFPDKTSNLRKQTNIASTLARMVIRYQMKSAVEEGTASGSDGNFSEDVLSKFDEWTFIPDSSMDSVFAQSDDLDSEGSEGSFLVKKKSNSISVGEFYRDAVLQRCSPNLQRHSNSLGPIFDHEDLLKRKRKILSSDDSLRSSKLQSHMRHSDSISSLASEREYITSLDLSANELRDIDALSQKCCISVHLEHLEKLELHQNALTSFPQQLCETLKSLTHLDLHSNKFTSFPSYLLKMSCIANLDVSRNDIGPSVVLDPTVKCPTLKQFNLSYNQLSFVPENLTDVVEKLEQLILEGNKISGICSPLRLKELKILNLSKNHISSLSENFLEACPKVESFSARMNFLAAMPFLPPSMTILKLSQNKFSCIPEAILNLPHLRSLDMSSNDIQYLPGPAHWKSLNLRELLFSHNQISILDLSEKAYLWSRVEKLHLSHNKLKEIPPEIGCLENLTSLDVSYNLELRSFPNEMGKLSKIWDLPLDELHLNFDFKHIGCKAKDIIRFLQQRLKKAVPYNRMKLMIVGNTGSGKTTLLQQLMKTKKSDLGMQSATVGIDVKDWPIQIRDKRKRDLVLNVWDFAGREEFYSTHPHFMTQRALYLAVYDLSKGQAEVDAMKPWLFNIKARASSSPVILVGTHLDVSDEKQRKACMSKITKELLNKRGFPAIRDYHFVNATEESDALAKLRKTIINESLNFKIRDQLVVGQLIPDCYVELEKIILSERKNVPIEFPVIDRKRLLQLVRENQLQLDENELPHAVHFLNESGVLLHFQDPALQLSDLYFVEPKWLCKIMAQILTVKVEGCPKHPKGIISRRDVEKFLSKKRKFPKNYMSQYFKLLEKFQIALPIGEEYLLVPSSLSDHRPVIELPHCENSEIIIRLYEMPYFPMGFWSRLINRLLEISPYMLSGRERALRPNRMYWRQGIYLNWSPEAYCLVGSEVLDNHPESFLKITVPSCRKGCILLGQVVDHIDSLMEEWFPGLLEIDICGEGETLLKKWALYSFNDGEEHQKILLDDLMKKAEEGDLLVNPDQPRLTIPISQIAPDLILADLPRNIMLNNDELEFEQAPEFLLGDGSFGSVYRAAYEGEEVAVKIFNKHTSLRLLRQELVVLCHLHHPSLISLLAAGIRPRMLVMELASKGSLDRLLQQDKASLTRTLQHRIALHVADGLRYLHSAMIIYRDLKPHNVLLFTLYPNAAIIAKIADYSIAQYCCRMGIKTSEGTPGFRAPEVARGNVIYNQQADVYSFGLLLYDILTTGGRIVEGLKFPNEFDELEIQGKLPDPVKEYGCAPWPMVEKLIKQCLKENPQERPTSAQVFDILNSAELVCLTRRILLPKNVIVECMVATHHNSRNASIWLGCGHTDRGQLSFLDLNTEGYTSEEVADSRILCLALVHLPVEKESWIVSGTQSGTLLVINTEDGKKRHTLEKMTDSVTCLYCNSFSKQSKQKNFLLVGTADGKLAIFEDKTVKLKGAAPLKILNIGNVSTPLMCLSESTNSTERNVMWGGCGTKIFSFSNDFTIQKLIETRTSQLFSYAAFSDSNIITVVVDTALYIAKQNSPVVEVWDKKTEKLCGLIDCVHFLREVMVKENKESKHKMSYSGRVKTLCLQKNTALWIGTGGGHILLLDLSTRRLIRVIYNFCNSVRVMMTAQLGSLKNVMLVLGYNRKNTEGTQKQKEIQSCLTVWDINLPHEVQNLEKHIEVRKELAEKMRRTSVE
The target in assay [5] is Leucine-rich repeat serine/threonine-protein kinase 2 (Homo sapiens, UniProt Q5S007). The description is as §1. As to conditions: at 10 µM.
Leucine-rich repeat serine/threonine-protein kinase 2, sequence (Q5S007 whole entry): as the sequence (Q5S007 whole entry G2019S) above, with S2019G counted along it
For assay [6], the target named is Tyrosine-protein kinase Fer (Homo sapiens) (UniProt P16591). Description: Selectivity interaction (ActivX KiNativ screen (ex vivo kinase selectivity in human PBMCs)) EUB0001619a FER. Format: cell-based. As to conditions: PBMC, at 1 µM.
Tyrosine-protein kinase Fer (Homo sapiens), sequence (P16591 whole entry, looked up): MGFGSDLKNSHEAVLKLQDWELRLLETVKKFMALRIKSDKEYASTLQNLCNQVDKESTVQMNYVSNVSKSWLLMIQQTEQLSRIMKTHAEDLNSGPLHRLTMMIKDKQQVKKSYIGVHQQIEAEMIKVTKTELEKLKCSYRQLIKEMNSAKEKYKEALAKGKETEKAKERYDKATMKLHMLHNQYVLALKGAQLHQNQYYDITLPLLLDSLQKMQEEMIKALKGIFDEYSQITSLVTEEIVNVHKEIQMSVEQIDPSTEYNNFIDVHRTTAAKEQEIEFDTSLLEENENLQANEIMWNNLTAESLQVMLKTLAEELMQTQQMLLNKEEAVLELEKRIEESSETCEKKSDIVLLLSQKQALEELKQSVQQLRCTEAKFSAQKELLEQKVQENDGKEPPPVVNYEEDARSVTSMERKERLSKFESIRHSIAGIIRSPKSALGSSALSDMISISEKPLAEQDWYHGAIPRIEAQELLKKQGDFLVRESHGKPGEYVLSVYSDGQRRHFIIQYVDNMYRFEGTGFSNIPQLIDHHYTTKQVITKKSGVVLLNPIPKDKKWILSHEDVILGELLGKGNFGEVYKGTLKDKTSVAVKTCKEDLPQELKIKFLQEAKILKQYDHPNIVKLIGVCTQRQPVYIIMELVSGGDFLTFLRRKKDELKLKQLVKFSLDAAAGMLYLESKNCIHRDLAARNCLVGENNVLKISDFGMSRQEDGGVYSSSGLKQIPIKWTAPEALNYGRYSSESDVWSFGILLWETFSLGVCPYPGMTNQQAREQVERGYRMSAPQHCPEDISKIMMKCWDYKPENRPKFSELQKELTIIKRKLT
The target of assay [7] is Calcium/calmodulin-dependent protein kinase type 1 (Homo sapiens) (UniProt Q14012). Description: Selectivity interaction (Kinase panel (literature)) EUB0001199aCl CAMK1. As to conditions: at 1 µM.
Calcium/calmodulin-dependent protein kinase type 1 (Homo sapiens), sequence (Q14012 whole entry, looked up): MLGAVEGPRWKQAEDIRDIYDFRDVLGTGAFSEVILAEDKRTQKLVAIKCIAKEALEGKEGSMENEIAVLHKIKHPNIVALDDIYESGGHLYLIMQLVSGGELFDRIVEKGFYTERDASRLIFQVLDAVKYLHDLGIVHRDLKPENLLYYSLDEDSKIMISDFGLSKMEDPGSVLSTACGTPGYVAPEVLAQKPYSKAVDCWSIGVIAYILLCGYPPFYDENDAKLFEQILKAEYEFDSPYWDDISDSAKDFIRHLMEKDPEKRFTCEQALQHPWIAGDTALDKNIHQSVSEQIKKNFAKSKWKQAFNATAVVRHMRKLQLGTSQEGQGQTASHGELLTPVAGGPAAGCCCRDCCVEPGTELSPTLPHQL
For assay [8], the target named is T2, 3-phosphoinositide-dependent protein kinase 1 (Homo sapiens) (UniProt O15530).
T2 sequence (whole entry): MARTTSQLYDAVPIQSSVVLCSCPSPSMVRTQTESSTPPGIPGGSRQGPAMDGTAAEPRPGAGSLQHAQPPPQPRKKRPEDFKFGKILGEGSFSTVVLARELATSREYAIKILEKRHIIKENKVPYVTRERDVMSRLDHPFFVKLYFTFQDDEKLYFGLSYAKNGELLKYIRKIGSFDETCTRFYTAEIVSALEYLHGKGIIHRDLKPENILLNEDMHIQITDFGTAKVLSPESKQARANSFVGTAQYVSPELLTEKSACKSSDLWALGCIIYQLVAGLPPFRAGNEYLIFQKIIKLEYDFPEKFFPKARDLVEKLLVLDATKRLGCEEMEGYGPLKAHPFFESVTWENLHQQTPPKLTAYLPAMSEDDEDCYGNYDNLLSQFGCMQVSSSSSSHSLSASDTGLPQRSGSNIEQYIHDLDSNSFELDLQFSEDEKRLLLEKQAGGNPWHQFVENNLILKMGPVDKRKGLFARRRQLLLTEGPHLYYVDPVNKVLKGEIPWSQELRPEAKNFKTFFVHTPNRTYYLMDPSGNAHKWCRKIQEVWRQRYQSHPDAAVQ
Description: Selectivity interaction (Kinase panel (literature)) EUB0001199aCl PDPK1. As to conditions: at 1 µM.

Assay [9] deals with T3, Activin receptor type-1B (Homo sapiens) (UniProt P36896).
T3 sequence (whole entry): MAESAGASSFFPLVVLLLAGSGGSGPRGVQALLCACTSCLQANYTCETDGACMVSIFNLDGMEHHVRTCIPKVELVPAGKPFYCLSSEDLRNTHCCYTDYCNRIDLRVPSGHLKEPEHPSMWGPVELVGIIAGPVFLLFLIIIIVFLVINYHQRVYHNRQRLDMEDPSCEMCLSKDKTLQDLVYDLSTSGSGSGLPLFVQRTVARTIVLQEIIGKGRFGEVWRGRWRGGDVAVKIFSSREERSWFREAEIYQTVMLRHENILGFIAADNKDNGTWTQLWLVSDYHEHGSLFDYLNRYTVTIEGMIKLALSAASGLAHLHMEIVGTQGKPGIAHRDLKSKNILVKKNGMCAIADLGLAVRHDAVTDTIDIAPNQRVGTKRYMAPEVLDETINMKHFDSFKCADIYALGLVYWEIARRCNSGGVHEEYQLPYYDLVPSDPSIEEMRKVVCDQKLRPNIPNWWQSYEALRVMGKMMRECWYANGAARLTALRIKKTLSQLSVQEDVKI
Kind of assay: Selectivity interaction (KinomeScan (DiscoverX)) EUB0000618a ACVR1B. The note with it: at 10 µM.

Tyrosine-protein kinase JAK1, sequence (P23458 whole entry): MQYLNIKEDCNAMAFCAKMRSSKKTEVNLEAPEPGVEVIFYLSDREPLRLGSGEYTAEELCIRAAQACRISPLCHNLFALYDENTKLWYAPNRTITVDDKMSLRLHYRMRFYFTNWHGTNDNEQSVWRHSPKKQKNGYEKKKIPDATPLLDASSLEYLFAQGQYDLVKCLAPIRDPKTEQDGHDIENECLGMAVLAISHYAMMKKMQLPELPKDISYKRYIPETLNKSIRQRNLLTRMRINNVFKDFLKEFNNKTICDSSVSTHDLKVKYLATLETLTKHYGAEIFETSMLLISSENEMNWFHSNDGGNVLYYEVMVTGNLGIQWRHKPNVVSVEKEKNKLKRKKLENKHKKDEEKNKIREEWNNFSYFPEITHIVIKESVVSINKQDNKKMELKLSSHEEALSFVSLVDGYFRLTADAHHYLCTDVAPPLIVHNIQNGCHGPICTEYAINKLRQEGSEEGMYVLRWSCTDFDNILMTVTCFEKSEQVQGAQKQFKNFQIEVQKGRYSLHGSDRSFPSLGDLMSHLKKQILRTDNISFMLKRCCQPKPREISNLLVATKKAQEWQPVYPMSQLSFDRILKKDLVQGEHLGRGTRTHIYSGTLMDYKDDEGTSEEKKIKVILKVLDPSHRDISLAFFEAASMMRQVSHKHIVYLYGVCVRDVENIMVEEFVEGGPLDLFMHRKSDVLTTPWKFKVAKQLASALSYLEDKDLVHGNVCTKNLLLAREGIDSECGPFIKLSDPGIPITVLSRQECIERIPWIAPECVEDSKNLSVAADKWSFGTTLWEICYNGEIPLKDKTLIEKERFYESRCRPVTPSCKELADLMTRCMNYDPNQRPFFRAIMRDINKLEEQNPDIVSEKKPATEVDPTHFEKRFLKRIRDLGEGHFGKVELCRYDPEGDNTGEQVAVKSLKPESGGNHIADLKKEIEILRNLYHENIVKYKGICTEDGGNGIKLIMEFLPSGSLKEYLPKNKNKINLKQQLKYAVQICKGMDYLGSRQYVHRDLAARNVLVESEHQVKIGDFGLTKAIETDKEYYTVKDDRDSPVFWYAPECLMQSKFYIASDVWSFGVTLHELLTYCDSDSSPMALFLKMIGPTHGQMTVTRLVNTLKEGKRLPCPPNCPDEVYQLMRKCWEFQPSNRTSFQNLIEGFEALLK

With `COc1cc(Nc2nc(C)cc(-c3cnn4nc(OC)ccc34)n2)cc(C(F)(F)F)c1`, the % of control in assay [1] was determined as 100%.
For the molecule `Cn1cc(-n2cnc3c(NCc4nc5cc(Cl)c(Cl)cc5[nH]4)nc(N4CCOCC4)nc32)cn1`, the % of inhibition in assay [2] amounted to 17.1%.
`CC[C@@H]1[C@H](F)C(=O)N[C@@H]1COc1nccc2cc(C(N)=O)c(OC)cc12` [ZIMLOVISERTIB]: the % of inhibition in [3] is -1.1%.
Regarding `COCC(=O)NC/C=C/c1ccc2ncnc(Nc3ccc(Oc4ccc(C)nc4)c(C)c3)c2c1` [CP-724714], the % of control in assay [4] was 98%; in assay [5], 100%.
Consider `N#Cc1cccc(-c2c[nH]c3ncnc(N4CCOCC4)c23)c1`, for which, in [6], the % of inhibition was determined as 2%.
Turning to `CN1Cc2nccc(-c3cn(C)nc3-c3ccc(F)cc3)c2C1=O`, the results for the % of inhibition in assay [7] and in [8] were -9% and -4%, respectively.
Regarding `O[C@H]1CC[C@H](Nc2ncc3nc(Nc4c(F)cc(F)cc4F)n([C@H]4CCOC4)c3n2)CC1`, the % of control in assay [9] worked out at 99%.
